The source made the active and inactive calls. The rule behind the calls is not given here.
Legend:
[1] = system: MDA-MB-231; test: Cytotoxicity against human MDA-MB-231 cells after 48 hrs by MTT assay; assay type: functional, cell-based; conditions: MDA-MB-231, 48 h
[2] = system: A549; test: Cytotoxicity against human A549 cells after 48 hrs by MTT assay; assay type: functional, cell-based; conditions: A549, 48 h
[3] = system: BT-549; test: Cytotoxicity against human BT549 cells after 48 hrs by MTT assay; assay type: functional, cell-based; conditions: BT-549, 48 h
[4] = system: DU-145; test: Cytotoxicity against human DU145 cells after 48 hrs by MTT assay; assay type: functional, cell-based; conditions: DU-145, 48 h
[5] = system: MCF-10A; test: Cytotoxicity against human MCF10A cells after 48 hrs by MTT assay; assay type: cell-based
[6] = system: MDA-MB-231; test: Induction of apoptosis in human MDA-MB-231 cells assessed as fragmented nuclei at compound IC50 after 24 hrs by […] staining-based fluorescence microscopic analysis; assay type: functional, cell-based
[7] = system: MDA-MB-231; test: Induction of apoptosis in human MDA-MB-231 cells assessed as chromatin condensation at compound IC50 after 24 hrs by […] staining-based fluorescence microscopic analysis; assay type: functional, cell-based
[8] = system: MDA-MB-231; test: Disruption of F-actin-mediated stress fiber formation around nucleus in human MDA-MB-231 cells at compound IC50 after 12 hrs by rhodamine-phalloidin/[…] staining-based confocal microscopic analysis; assay type: functional, cell-based
[9] = system: MDA-MB-231; test: Induction of apoptosis in human MDA-MB-231 cells assessed as appearance of horseshoe shaped nuclei at compound IC50 after 24 hrs by […] staining-based fluorescence microscopic analysis; assay type: functional, cell-based
[10] = system: MDA-MB-231; test: Induction of nuclear shrinkage in human MDA-MB-231 cells at IC50 after 24 to 48 hrs by phase contrast microscopic analysis; assay type: functional, cell-based
[11] = system: MDA-MB-231; test: Induction of apoptosis in human MDA-MB-231 cells assessed as pyknosis at compound IC50 after 24 hrs by […] staining-based fluorescence microscopic analysis; assay type: functional, cell-based
[12] = system: MDA-MB-231; test: Induction of ROS generation in human MDA-MB-231 cells at compound IC50 after 24 hrs by DCFDA staining-based spectrofluorometric analysis relative to control; assay type: functional, cell-based
[13] = system: MDA-MB-231; test: Antimigratory activity in human MDA-MB-231 cells at compound IC50 after 24 to 48 hrs by wound healing assay relative to control; assay type: functional, cell-based
[14] = system: MDA-MB-231; test: Disruption of mitochondrial membrane potential in human MDA-MB-231 cells at compound IC50 after 24 hrs by rhodamine 123 staining-based spectrofluorometric analysis; assay type: functional
[15] = system: MDA-MB-231; test: Induction of detachment of human MDA-MB-231 cells at compound IC50 after 24 to 48 hrs by phase contrast microscopic analysis; assay type: functional, cell-based
[16] = system: MDA-MB-231; test: Induction of cell cycle arrest in human MDA-MB-231 cells assessed as accumulation at G2/M phase at 5 uM after 24 hrs by propidium iodide staining based flow cytometry (reference value: 18.86%); assay type: functional
[17] = system: MDA-MB-231; test: Induction of cell cycle arrest in human MDA-MB-231 cells assessed as accumulation at G2/M phase at 10 uM after 24 hrs by propidium iodide staining based flow cytometry (reference value: 18.86%); assay type: functional
[18] = system: MDA-MB-231; test: Induction of cell cycle arrest in human MDA-MB-231 cells assessed as accumulation at G2/M phase at 2.5 uM after 24 hrs by propidium iodide staining based flow cytometry (reference value: 18.86%); assay type: functional
[19] = system: MDA-MB-231; test: Induction of cell cycle arrest in human MDA-MB-231 cells assessed as accumulation at […] at 5 uM after 24 hrs by propidium iodide staining based flow cytometry (reference value: 26.12%); assay type: functional
[20] = system: MDA-MB-231; test: Induction of cell cycle arrest in human MDA-MB-231 cells assessed as accumulation at G0/G1 phase at 10 uM after 24 hrs by propidium iodide staining based flow cytometry (reference value: 55.02%); assay type: functional
[21] = system: MDA-MB-231; test: Induction of cell cycle arrest in human MDA-MB-231 cells assessed as accumulation at […] at 2.5 uM after 24 hrs by propidium iodide staining based flow cytometry (reference value: 26.12%); assay type: functional
[22] = system: MDA-MB-231; test: Induction of cell cycle arrest in human MDA-MB-231 cells assessed as accumulation at G0/G1 phase at 2.5 uM after 24 hrs by propidium iodide staining based flow cytometry (reference value: 55.02%); assay type: functional
[23] = system: MDA-MB-231; test: Induction of cell cycle arrest in human MDA-MB-231 cells assessed as accumulation at […] at 10 uM after 24 hrs by propidium iodide staining based flow cytometry (reference value: 26.12%); assay type: functional
[24] = system: MDA-MB-231; test: Induction of cell cycle arrest in human MDA-MB-231 cells assessed as accumulation at G0/G1 phase at 5 uM after 24 hrs by propidium iodide staining based flow cytometry (reference value: 55.02%); assay type: functional

| SMILES | IC50 [1] [µM] | IC50 [2] [µM] | IC50 [3] [µM] | IC50 [4] [µM] | IC50 [5] [µM] | other results |
| --- | --- | --- | --- | --- | --- | --- |
| COc1cc(/C=C2\C(=O)Nc3ccccc32)ccc1OCCCN1CCN(c2ncccc2C(F)(F)F)CC1 | > 20 | > 20 | > 20 | > 20 | – | – |
| COc1cc(/C=C2\C(=O)Nc3ccc(Cl)cc32)ccc1OCCCN1CCOCC1 | 2.51 | 5.5 | 2.79 | 2.91 | > 100 | – |
| COc1cc(/C=C2\C(=O)Nc3ccccc32)ccc1OCCCN1CCOCC1 | > 20 | > 20 | > 20 | > 20 | – | – |
| COc1cc(/C=C2\C(=O)Nc3ccccc32)ccc1OCCN1CCOCC1 | > 20 | > 20 | > 20 | > 20 | – | – |
| COc1cc(/C=C2\C(=O)Nc3ccc(Br)cc32)ccc1OCCN1CCOCC1 | > 20 | > 20 | > 20 | > 20 | – | – |
| COc1cc(/C=C2\C(=O)Nc3ccc(C)cc32)ccc1OCCCN1CCOCC1 | > 20 | > 20 | > 20 | > 20 | – | – |
| COc1cc(/C=C2\C(=O)Nc3ccc(Cl)cc32)ccc1OCCCN1CC(C)OC(C)C1 (configuration not stated) | 1.99 | 6.25 | 2.77 | 2.71 | 54.6 | Activity [6]: Active; Activity [7]: Active; Activity [8]: Active; Activity [9]: Active; Activity [10]: Active; Activity [11]: Active; Activity [12]: Active; Activity [13]: Active; Activity [14]: 28%; Activity [15]: Active |
| COc1cc(/C=C2\C(=O)Nc3ccccc32)ccc1OCCCN1CCN(C)CC1 | 2.07 | 3.35 | 2.53 | 2.23 | > 100 | – |
| COc1cc(/C=C2\C(=O)Nc3ccc(Cl)cc32)ccc1OCCN1CCOCC1 | 3.31 | 14.7 | 3.52 | 4.43 | 61.3 | – |
| COc1cc(/C=C2\C(=O)Nc3ccc(F)cc32)ccc1OCCN1CCOCC1 | > 20 | > 20 | > 20 | > 20 | – | – |
| COc1cc(/C=C2\C(=O)Nc3ccc(C)cc32)ccc1OCCCN1CCN(c2ncccc2C(F)(F)F)CC1 | > 20 | > 20 | > 20 | > 20 | – | – |
| COc1cc(/C=C2\C(=O)Nc3ccc(Cl)cc32)ccc1OCCCN1CCN(c2ccccn2)CC1 | 14.8 | > 20 | > 20 | > 20 | 51.3 | – |
| COc1cc(/C=C2\C(=O)Nc3ccccc32)ccc1OCCCN1CCN(c2ccccn2)CC1 | > 20 | > 20 | > 20 | > 20 | – | – |
| COc1cc(/C=C2\C(=O)Nc3ccc(Cl)cc32)ccc1OCCCN1CCN(c2ncccc2C(F)(F)F)CC1 | 1.26 | 9.53 | 1.53 | 1.61 | 41.3 | Activity [6]: Active; Activity [7]: Active; Activity [16]: 10.54%; Activity [17]: 9.42%; Activity [18]: 13.45%; Activity [19]: 11.74%; Activity [8]: Active; Activity [9]: Active; Activity [10]: Active; Activity [11]: Active; Activity [20]: 84.74%; Activity [21]: 17.93%; Activity [12]: Active; Activity [22]: 68.53%; Activity [23]: 5.81%; Activity [13]: Active; Activity [24]: 77.62%; Activity [14]: 40%; Activity [15]: Active |
| COc1cc(/C=C2\C(=O)Nc3ccc(C)cc32)ccc1OCCN1CCOCC1 | 9.5 | > 20 | > 20 | > 20 | > 100 | – |
| COc1cc(/C=C2\C(=O)Nc3ccccc32)ccc1OCCCN1CC(C)OC(C)C1 (configuration not stated) | 15.2 | > 20 | > 20 | > 20 | – | – |
| COc1cc(/C=C2\C(=O)Nc3ccccc32)ccc1OCCCn1nc(C)cc1C | > 20 | > 20 | > 20 | > 20 | – | – |
| COc1cc(/C=C2\C(=O)Nc3ccc(C)cc32)ccc1OCCCN1CC(C)OC(C)C1 (configuration not stated) | 11.5 | > 20 | > 20 | > 20 | – | – |
| COc1cc(/C=C2\C(=O)Nc3ccccc32)ccc1OCCCN1CCc2ccccc21 | > 20 | > 20 | > 20 | > 20 | – | – |
| COc1cc(/C=C2\C(=O)Nc3ccc(Cl)cc32)ccc1OCCCN1CCN(C)CC1 | 1.75 | 11.3 | 2.17 | 2.15 | 43.6 | Activity [6]: Active; Activity [7]: Active; Activity [8]: Active; Activity [9]: Active; Activity [10]: Active; Activity [11]: Active; Activity [12]: Active; Activity [13]: Active; Activity [14]: 32%; Activity [15]: Active |

— ChEMBL document CHEMBL4431319, “Design and synthesis of 4'-O-alkylamino-tethered-benzylideneindolin-2-ones as potent cytotoxic and apoptosis inducing agents” (Bioorg Med Chem Lett, 2016)
